The values that follow come from patent US8148366B2, “Substituted pyrazolo[3,4-E][diazepin-6-5(H)ones and analogues thereof, their preparation and their use as antibacterial medicaments” (Novexel SA, priority 2008, dated 2012).

In brackets after ≈: the same amount, converted by molar mass.

The test system of the test is Pseudomonas aeruginosa (1771 Wild-type strain). The experiment in a line: Activity in vitro, method of dilutions in liquid medium (M.I.C.). It counts as cell-based. As to conditions: incubation 24 hours at 37° C., growth inhibition by transillumination; for MIC: read-out: MIC (μg/mL) 24 h (P, aerug, 1771). The method, then:
Activity in vitro, method of dilutions in liquid medium:
A series of tubes is prepared, into which the same quantity of sterile nutritive medium is distributed, increasing quantities of the product to be studied are distributed into each tube then each tube is seeded with a bacterial strain. After incubation for 24 hours in an oven at 37° C., growth inhibition is assessed by transillumination, which makes it possible to determine the minimum inhibitory concentrations (M.I.C.) expressed in μg/ml.
Tests are thus carried out with the products of Examples 1 to 19 in comparison with the products of Examples 11 of the Application WO 04/052891 and 18 of the Application WO 02/100860.

Regarding `NCCCNC(=O)n1cc2c(n1)[C@@H](CN)N1C[C@H]2N(OS(=O)(=O)O)C1=O` (relative stereo) [Ex5, trans 8-(aminomethyl)-2-[(3-amino-propyl)carbamoyl]-4,8-dihydro-5-(sulphooxy)-4,7-methano-7H-pyrazolo[3,4-e][1,3] diazepin-6(5H)-one], the MIC is 0.5 µg/mL (≈ 1.28 µM).
With `N=C(N)n1ncc2c1[C@@H](CN)N1C[C@H]2N(OS(=O)(=O)O)C1=O` (relative stereo) [Ex9], the “MIC (μg/mL) 24 h (P, aerug, 1771)” value is 0.5 µg/mL (≈ 1.51 µM).
As to `NC[C@@H]1c2nn(C(=O)C3CCNCC3)cc2[C@H]2CN1C(=O)N2OS(=O)(=O)O` (relative stereo) [Ex11, trans-8-(amino-methyl)-4,8-dihydro-2-(piperidine-4-carbonyl)-5-(sulphooxy)-4,7-methano-7H-pyrazolo[3,4-e][1,3]diazepin-6(5H)-one], the MIC came out at 0.25 µg/mL (≈ 0.624 µM).
Turning to `NC[C@@H]1c2nn(C(=O)N3CCCC3)cc2[C@H]2CN1C(=O)N2OS(=O)(=O)O` (relative stereo) [Ex4, trans 8-(aminomethyl)-4,8-dihydro-2-(pyrrolidine-1-carbonyl)-5-(sulphooxy)-4,7-methano-7H-pyrazolo[3,4-e][1,3]diazepin-6(5H)-one], the MIC turned out to be 8 µg/mL (≈ 20.7 µM).
As for `CC(N)CCNC(=O)n1cc2c(n1)[C@@H](CN)N1C[C@H]2N(OS(=O)(=O)O)C1=O` (relative stereo) [Ex6, trans 8-(aminomethyl)-2-[(3-amino-butyl)carbamoyl]-4,8-dihydro-5-(sulphooxy)-4,7-methano-7H-pyrazolo[3,4-e][1,3] diazepin-6(5H)-one], the MIC was found to be 4 µg/mL (≈ 9.92 µM).
Take `CCNC(=O)n1cc2c(n1)[C@@H](CNC(=N)N)N1C[C@H]2N(OS(=O)(=O)O)C1=O` (relative stereo) [Ex16, trans 8-(guanidino-methyl)-2-ethylcarbamoyl-4,8-dihydro-5-(sulphooxy)-4,7-methano-7H-pyrazolo[3,4-e][1,3] diazepin-6(5H)-one]: the MIC came out at 16 µg/mL (≈ 39.8 µM).
For the molecule `Cn1ncc2c1[C@@H](CN)N1C[C@H]2N(OC(F)(F)C(=O)O)C1=O` (relative stereo) [Ex18, trans 8-(amino-methyl)-4,8-dihydro-1-methyl-6-oxo-5-(carboxy-difluoro-methoxy)-4,7-methano-7H-pyrazolo[3,4-e][1,3] diazepin-6(5H)-one], the “MIC (μg/mL) 24 h (P, aerug, 1771)” value was 0.5 µg/mL (≈ 1.58 µM).
For the molecule `N=C(N)NC[C@@H]1c2nn(C(N)=O)cc2[C@H]2CN1C(=O)N2OS(=O)(=O)O` (relative stereo) [Ex17, trans 8-(guanidino-methyl)-2-carbamoyl-4,8-dihydro-5-(sulphooxy)-4,7-methano-7H-pyrazolo[3,4-e][1,3]diazepin-6(5H)-one], the MIC is 1 µg/mL (≈ 2.67 µM).
Regarding `N=C(N)NC[C@@H]1c2[nH]ncc2[C@H]2CN1C(=O)N2OS(=O)(=O)O` (relative stereo) [Ex13, trans 8-(guanidino-methyl)-4,8-dihydro-5-(sulphooxy)-4,7-methano-7H-pyrazolo[3,4-e][1,3]diazepin-6(5H)-one], the MIC stood at 1 µg/mL (≈ 3.02 µM).
On the same count and under the same terms, next, `CN(C)CCNC(=O)n1cc2c(n1)[C@@H](CN)N1C[C@H]2N(OS(=O)(=O)O)C1=O` (relative stereo) [Ex3, trans 8-(aminomethyl)-4,8-dihydro-2-(2-dimethylaminoethylcarbamoyl)-5-(sulphooxy)-4,7-methano-7H-pyrazolo[3,4-e][1,3] diazepin-6(5H)-one]: 1 µg/mL (≈ 2.48 µM).
As for “trans 8-(aminomethyl)-2-amino-carbamoyl-4,8-dihydro-5-(sulphooxy)-4,7-methano-7H-pyrazolo[3,4-e][1,3]diazepin-6(5H)-one [Ex19]”, the “MIC (μg/mL) 24 h (P, aerug, 1771)” value was found to be 0.5 µg/mL.
For the molecule `N=C(N)n1cc2c(n1)[C@@H](CN)N1C[C@H]2N(OS(=O)(=O)O)C1=O` (relative stereo) [Ex10, trans 8-(aminomethyl)-2-(carbamimidoyl)-4,8-dihydro-5-(sulphooxy)-4,7-methano-7H-pyrazolo[3,4-e] [1,3]diazepin-6(5H)-one], the MIC was found to be 0.5 µg/mL (≈ 1.51 µM).
As to `NC[C@@H]1c2nn(C(=O)NCC(N)=O)cc2[C@H]2CN1C(=O)N2OS(=O)(=O)O` (relative stereo) [Ex7, trans 8-(aminomethyl)-2-(carbamoylmethyl-carbamoyl)-4,8-dihydro-5-(sulphooxy)-4,7-methano-7H-pyrazolo[3,4-e][1,3]diazepin-6(5H)-one], the MIC is 1 µg/mL (≈ 2.57 µM).
Turning to `NC[C@@H]1c2nn(CCC(N)C(=O)O)cc2[C@H]2CN1C(=O)N2OS(=O)(=O)O` (relative stereo) [Ex12, trans 8-(amino-methyl)-2-(3-amino-3-carboxy-propyl)-4,8-dihydro-5-(sulphooxy)-4,7-methano-7H-pyrazolo[3,4-e][1,3] diazepin-6(5H)-one], the MIC came to 0.5 µg/mL (≈ 1.28 µM).
Turning to `NC[C@@H]1c2nn(C(=O)N3CCNCC3)cc2[C@H]2CN1C(=O)N2OS(=O)(=O)O` (relative stereo) [Ex2, trans 8-(aminomethyl)-2-(4-piperazine-1-carbonyl)-4,8-dihydro-5-(sulphooxy)-4,7-methano-7H-pyrazolo[3,4-e][1,3]diazepin-6(5H)-one], the “MIC (μg/mL) 24 h (P, aerug, 1771)” value worked out at 0.5 µg/mL (≈ 1.25 µM).
For `CCNC(=O)n1ncc2c1[C@@H](CNC(=N)N)N1C[C@H]2N(OS(=O)(=O)O)C1=O` (relative stereo) [Ex15, trans 8-(guanidino-methyl)-1-ethylcarbamoyl-4,8-dihydro-5-(sulphooxy)-4,7-methano-7H-pyrazolo[3,4-e][1,3]diazepin-6(5H)-one], the MIC was over 32 µg/mL.
